Assay results: PubChem BioAssay AID248 (DTP/NCI, 2004)
Where “and” joins values, the source holds several entries; their conditions need not be identical. Equal values may be shown once. Toxic doses and inconclusive results are not listed. Rule as the data show it: active = T/C of 150% or more; inactive = T/C below 125%.

System: L1210 leukemia ip in BDF1 mice, survival T/C
Assay: NCI In Vivo Anticancer Drug Screen. Data for tumor model L1210 Leukemia (intraperitoneal) in B6D2F1 (BDF1) mice
Details: endpoint: mean survival time, higher = longer survival
In short: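 Survival endpoint. Drug-treated group vs vehicle group, expressed as T divided by C. Tumor passaged by transplantation.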

[1] = dose: 200.0 mg/kg/injection, schedule: Q01DX001 (ip), vehicle: carboxymethylcellulose (CMC)
[2] = dose: 400.0 mg/kg/injection, schedule: Q01DX001 (ip), vehicle: carboxymethylcellulose (CMC)
[3] = dose: 100.0 mg/kg/injection, schedule: Q04DX002 (ip), vehicle: Klucel (hydroxypropylcellulose) (HPC)
[4] = dose: 200.0 mg/kg/injection, schedule: Q04DX002 (ip), vehicle: Klucel (hydroxypropylcellulose) (HPC)
[5] = dose: 100.0 mg/kg/injection, schedule: Q04DX003 (ip), vehicle: saline
[6] = dose: 200.0 mg/kg/injection, schedule: Q04DX003 (ip), vehicle: saline
[7] = dose: 400.0 mg/kg/injection, schedule: Q04DX003 (ip), vehicle: saline
[8] = dose: 100.0 mg/kg/injection, schedule: Q01DX001 (ip), vehicle: saline
[9] = dose: 200.0 mg/kg/injection, schedule: Q01DX001 (ip), vehicle: saline
[10] = dose: 400.0 mg/kg/injection, schedule: Q01DX001 (ip), vehicle: saline
[11] = dose: 100.0 mg/kg/injection, schedule: Q04DX003 (ip), vehicle: Klucel (hydroxypropylcellulose) (HPC)
[12] = dose: 200.0 mg/kg/injection, schedule: Q04DX003 (ip), vehicle: Klucel (hydroxypropylcellulose) (HPC)
[13] = dose: 400.0 mg/kg/injection, schedule: Q04DX003 (ip), vehicle: Klucel (hydroxypropylcellulose) (HPC)
[14] = dose: 100.0 mg/kg/injection, schedule: Q01DX009 (ip), vehicle: saline sonified
[15] = dose: 200.0 mg/kg/injection, schedule: Q01DX009 (ip), vehicle: saline sonified
[16] = dose: 400.0 mg/kg/injection, schedule: Q01DX009 (ip), vehicle: saline sonified
[17] = dose: 100.0 mg/kg/injection, schedule: Q01DX009 (ip), vehicle: Klucel (hydroxypropylcellulose) (HPC)
[18] = dose: 200.0 mg/kg/injection, schedule: Q01DX009 (ip), vehicle: Klucel (hydroxypropylcellulose) (HPC)

Measured: T/C

C=CCc1c2c(ccc(OC)c1=O)-c1c(cc(OC)c(OC)c1OC)CCC2NC(C)=O (stereo unspecified)
inactive: dose: 100.0 mg/kg/injection, schedule: Q01DX001 (ip), vehicle: carboxymethylcellulose (CMC) 106 % of control | [1] 109 % of control | [2] 109 % of control

O=C(C=C(C(F)(F)F)C(F)(F)F)c1cccc(S(=O)(=O)F)c1
inactive: dose: 3.13 mg/kg/injection, schedule: Q01DX009 (ip), vehicle: saline with Tween-80 96 % of control | dose: 6.25 mg/kg/injection, schedule: Q01DX009 (ip), vehicle: saline with Tween-80 100 % of control | dose: 12.5 mg/kg/injection, schedule: Q01DX009 (ip), vehicle: saline with Tween-80 95 % of control

COC1(OC)C2(Cl)C=CC1(Cl)C1CC12 (stereo unspecified)
inactive: [3] 97 % of control | [4] 107 % of control | dose: 400.0 mg/kg/injection, schedule: Q04DX002 (ip), vehicle: Klucel (hydroxypropylcellulose) (HPC) 100 % of control

OCC1OC(n2c3ccccc3c3ccccc32)C(O)C1O (stereo unspecified)
inactive: dose: 60.0 mg/kg/injection, schedule: Q04DX002 (ip), vehicle: DMSO 97 % of control | dose: 120.0 mg/kg/injection, schedule: Q04DX002 (ip), vehicle: DMSO 102 % of control

O=Cc1ccc(O)cn1
inactive: [5] 92 % of control | [6] 87 % of control | [7] 92 % of control

c1ccc(CC(Cc2ccccc2)CN2CCCC2)cc1
inactive: dose: 100.0 mg/kg/injection, schedule: Q01DX009 (ip), vehicle: saline 94 % of control | [5] 95 % of control | dose: 200.0 mg/kg/injection, schedule: Q01DX009 (ip), vehicle: saline 102 % of control | [6] 94 % of control | dose: 400.0 mg/kg/injection, schedule: Q01DX009 (ip), vehicle: saline 103 % of control | [7] 89 % of control

CN1C(CCl)Nc2cc(Cl)c(S(N)(=O)=O)cc2S1(=O)=O (stereo unspecified)
inactive: [8] 95 % of control | [9] 90 % of control | [10] 96 % of control

C/C(=C\C(C)(C)c1ccccc1)c1ccccc1
inactive: dose: 50.0 mg/kg/injection, schedule: Q04DX003 (ip), vehicle: other 92 % of control | dose: 100.0 mg/kg/injection, schedule: Q04DX003 (ip), vehicle: other 92 % of control | dose: 200.0 mg/kg/injection, schedule: Q04DX003 (ip), vehicle: other 100 % of control

O=C(CNc1ccccc1)c1ccc(O)c(C(=O)O)c1 (tested in a mixture with another compound)
inactive: [11] 91 % of control | [12] 90 % of control | [13] 93 % of control

CN(C1CCCC1)C1CCCC1
inactive: dose: 10.0 mg/kg/injection, schedule: Q01DX009 (ip), vehicle: Klucel (hydroxypropylcellulose) (HPC) 106 % of control | dose: 10.0 mg/kg/injection, schedule: Q04DX003 (ip), vehicle: Klucel (hydroxypropylcellulose) (HPC) 102 % of control | dose: 20.0 mg/kg/injection, schedule: Q01DX009 (ip), vehicle: Klucel (hydroxypropylcellulose) (HPC) 104 % of control | dose: 20.0 mg/kg/injection, schedule: Q04DX003 (ip), vehicle: Klucel (hydroxypropylcellulose) (HPC) 94 % of control | dose: 40.0 mg/kg/injection, schedule: Q01DX009 (ip), vehicle: Klucel (hydroxypropylcellulose) (HPC) 102 % of control | dose: 40.0 mg/kg/injection, schedule: Q04DX003 (ip), vehicle: Klucel (hydroxypropylcellulose) (HPC) 96 % of control

COC(=O)c1cc(C)c(N)cc1C
inactive: [8] 96 % of control | [9] 104 % of control | [10] 102 % of control

O=C(O)CCCCCCC1CCCC1=O (stereo unspecified)
inactive: [14] 97 % of control | [15] 91 % of control | [16] 97 % of control

Cc1c(/C=C(\C#N)c2ccc([N+](=O)[O-])cc2)c(=O)n(-c2ccccc2)n1C
inactive: dose: 100.0 mg/kg/injection, schedule: Q01DX009 (ip), vehicle: gum acacia 93 % of control | dose: 100.0 mg/kg/injection, schedule: Q04DX003 (ip), vehicle: gum acacia 92 % of control | dose: 200.0 mg/kg/injection, schedule: Q01DX009 (ip), vehicle: gum acacia 90 % of control | dose: 200.0 mg/kg/injection, schedule: Q04DX003 (ip), vehicle: gum acacia 105 % of control | dose: 400.0 mg/kg/injection, schedule: Q01DX009 (ip), vehicle: gum acacia 89 % of control | dose: 400.0 mg/kg/injection, schedule: Q04DX003 (ip), vehicle: gum acacia 95 % of control

O=C(NCc1ccncc1)Nc1ccccc1F
inactive: dose: 100.0 mg/kg/injection, schedule: Q01DX001 (ip), vehicle: Klucel (hydroxypropylcellulose) (HPC) 93 % of control | [17] 100 % of control | [3] 94 % of control and 103 % of control | [11] 94 % of control | dose: 200.0 mg/kg/injection, schedule: Q01DX001 (ip), vehicle: Klucel (hydroxypropylcellulose) (HPC) 104 % of control | [18] 98 % of control and 105 % of control | [4] 101 % of control and 91 % of control | [12] 97 % of control

CC(c1ccccc1)c1ccc(O)cc1 (stereo unspecified)
inactive: [14] 97 % of control | [15] 95 % of control | [16] 97 % of control

OCC(O)COc1ccc(OCc2ccccc2)cc1 (stereo unspecified)
inactive: dose: 12.5 mg/kg/injection, schedule: Q01DX009 (ip), vehicle: Klucel (hydroxypropylcellulose) (HPC) 94 % of control | dose: 25.0 mg/kg/injection, schedule: Q01DX009 (ip), vehicle: Klucel (hydroxypropylcellulose) (HPC) 102 % of control | dose: 50.0 mg/kg/injection, schedule: Q01DX009 (ip), vehicle: Klucel (hydroxypropylcellulose) (HPC) 93 % of control and 87 % of control

Oc1ccc(C2SC(c3ccc(O)cc3)SC(c3ccc(O)cc3)S2)cc1 (stereo unspecified)
inactive: [1] 88 % of control | [2] 88 % of control

Cc1c([N+](=O)[O-])c(C)c([N+](=O)[O-])c(C(C)(C)C)c1[N+](=O)[O-]
inactive: [17] 93 % of control | [11] 92 % of control | [18] 94 % of control | [12] 100 % of control | dose: 400.0 mg/kg/injection, schedule: Q01DX009 (ip), vehicle: Klucel (hydroxypropylcellulose) (HPC) 96 % of control | [13] 94 % of control

Cc1cc(N)ccc1/C=C/C(=O)O
inactive: [5] 97 % of control | [6] 98 % of control | [7] 93 % of control

c1ccc(CNCCNCc2ccccn2)nc1
inactive: dose: 1.25 mg/kg/injection, schedule: Q04DX002 (ip), vehicle: saline 106 % of control | dose: 2.5 mg/kg/injection, schedule: Q04DX002 (ip), vehicle: saline 113 % of control | dose: 5.0 mg/kg/injection, schedule: Q04DX002 (ip), vehicle: saline 106 % of control | dose: 10.0 mg/kg/injection, schedule: Q04DX002 (ip), vehicle: saline 102 % of control
